Source: article doi:10.1101/2025.01.06.631558v1 (biorxiv, 2025)

Key:
CbPrpB [1] = target: T1, CbPrpB (Coxiella burnetii, UniProt Q83DG5); test: biochemical
T1 construct: gene prpB

CbPrpB [2] = target: T1, CbPrpB

T1 sequence (Q83DG5 1-290): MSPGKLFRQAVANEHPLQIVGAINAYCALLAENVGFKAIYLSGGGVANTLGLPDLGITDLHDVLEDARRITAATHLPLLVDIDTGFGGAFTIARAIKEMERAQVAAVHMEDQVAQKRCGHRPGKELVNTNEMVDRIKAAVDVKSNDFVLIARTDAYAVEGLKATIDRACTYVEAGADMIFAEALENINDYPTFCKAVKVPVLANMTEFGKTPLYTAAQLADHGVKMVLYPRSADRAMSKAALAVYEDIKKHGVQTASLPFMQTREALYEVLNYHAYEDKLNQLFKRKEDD

Question: Which Ki (CbPrpB [1]) does the source give for O=C(O)C[C@H](C(=O)O)[C@@H](O)C(=O)O [isocitrate] here?
Answer: 6 ± 2 mM

Question: How did the “X-ray crystal structure, soak” value (CbPrpB [2]) turn out when CC(=O)C(=O)O [pyruvate] was run?
Answer: We first determined the structure of product-bound CbPrpB

Question: For O=C(O)CCC(=O)O [succinate], which “X-ray crystal structure, soak” value (CbPrpB [2]) is on record?
Answer: We first determined the structure of product-bound CbPrpB
